Assays:
Type in all cases: cell-based
[1] = system: ICAM production by human skin fibroblasts; experiment: Fibroblast ICAM-1 assay (PMA-induced); settings: PMA 10 nM
Experimental: Fibroblasts PGE2 and ICAM Assay Intracellular adhesion molecules (ICAM) and PEG2 production by human skin fibroblasts can be induced by the inflammatory stimulus PMA (phorbal myristate acetate). PMA represents an external stressor which induces oxidative stress and inflammatory responses in cells. This model is used to model inflammation in vivo. Primary human foreskin fibroblasts at passage 2 (P2) were seeded into 96-well plates at 10000 cells/well and maintained for 24 hours in an atmosphere of 5% carbon dioxide in Dulbeccos Modified Eagles Medium (DMEM) supplemented with 10% foetal calf serum. The test substances as indicated in the table 7 below were added to fresh cell media (DMEM, supplemented with 10% foetal calf serum) in dimethylsulphoxide and ethanol final concentration<1%) in triplicate and incubated for a further 24 hours. […] The fibroblasts/media were then analysed as described below immediately or snap frozen in liquid nitrogen and stored at −70° C. for future analysis. The cells were then counted and data from the dot-blot analysis subsequently standardised to cell number. […] The soluble ICAM-1 was assessed with commercially available immunoenzymometric assay kit (R&D Systems). Concentrations of ICAM-1 in the samples were determined based on parallel running standard curve.

[2] = system: PGE2 production by human skin fibroblasts; experiment: Fibroblast PGE2 assay (PMA-induced); settings: PMA 10 nM
Experimental: Fibroblasts PGE2 and ICAM Assay
Intracellular adhesion molecules (ICAM) and PEG2 production by human skin fibroblasts can be induced by the inflammatory stimulus PMA (phorbal myristate acetate). PMA represents an external stressor which induces oxidative stress and inflammatory responses in cells. This model is used to model inflammation in vivo.
Primary human foreskin fibroblasts at passage 2 (P2) were seeded into 96-well plates at 10000 cells/well and maintained for 24 hours in an atmosphere of 5% carbon dioxide in Dulbeccos Modified Eagles Medium (DMEM) supplemented with 10% foetal calf serum. The test substances as indicated in the table 7 below were added to fresh cell media (DMEM, supplemented with 10% foetal calf serum) in dimethylsulphoxide and ethanol final concentration<1%) in triplicate and incubated for a further 24 hours. Phorbal myristate acetate (PMA) (Sigma) was added 10 nM to the media and the cells incubated for a further 24 hours. […] The fibroblasts/media were then analysed as described below immediately or snap frozen in liquid nitrogen and stored at −70° C. for future analysis. The cells were then counted and data from the dot-blot analysis subsequently standardised to cell number.
Prostaglandin E2 (PGE2) Assay
Volumes of 50 μl culture medium were taken for PGE2 assay after gently shaking the culture plate. PGE2 levels in the medium were determined with a Biotrak PGE2 immunoassay kit (Amersham, UK). The assay is based on the competition between unlabelled PGE2 in the sample and a fixed quantity of horseradish peroxidase labelled PGE2 for a limited amount of fixed PGE2 specific antibody. Concentrations of unlabelled sample PGE2 are determined according to a standard curve which was obtained at the same time.

[3] = system: decorin synthesis in human dermal fibroblasts; experiment: Dot blot assay for decorin protein in dermal fibroblast conditioned medium; settings: 24 h, relative to vehicle treated control = 100 arbitrary units
Experimental: Procedure for Measuring Procollagen-I and Decorin Synthesis in Human Dermal Fibroblasts
Preparation of Dermal Fibroblast Conditioned Medium
Primary human foreskin fibroblasts at passage 2 (P2) were seeded into 12-well plates at 10000 cells/cm^2 and maintained for 24 hours in an atmosphere of 5% carbon dioxide and 4% oxygen in Dulbeccos Modified Eagles Medium (DMEM) supplemented with 10% foetal calf serum. After this time the cells were washed with serum free DMEM and then incubated in fresh serum free DMEM for a further 60 hours.
The fibroblast monolayers were then washed again with serum free DMEM. […] This fibroblast conditioned medium was either analysed immediately or snap frozen in liquid nitrogen and stored at −70° C. for future analysis. The cells were then counted and data from the dot-blot analysis subsequently standardised to cell number. […]
Membranes prepared for decorin analysis were blocked with 3% (w/v) BSA/0.1% (v/v) Tween 20 in PBS, whilst those for procollagen-I analysis were blocked with 5% (w/v) non fat dried milk powder/0.05% Tween 20 in PBS. […] Dot intensity was assessed by computer-assisted image analysis using the quantification tools in ImageQuant™, standardised to cell number and the effects of various test reagents on decorin and procollagen-I synthesis were determined relative to a vehicle treated control value of 100 arbitrary units. […]

Compound: O=C(O[C@@H]1Cc2c(O)cc(O)cc2O[C@@H]1c1cc(O)c(O)c(O)c1)c1cc(O)c(O)c(O)c1 [EGCG, epigallocatechin gallate]
- % of inhibition of fibroblast ICAM production ([1]; EGCG 5 μM): 4.5%
- % of Inhibition of Fibroblast PGE2 Levels ([2]; EGCG 5 μM): 35.6%
- Decorin ([3]; 0.5 μg/ml EGCG): −99.6%

Compound: O=c1c(-c2ccc(O)cc2)coc2cc(O)cc(O)c12 [genistein]
- inhibition at 5 µM ([2]; Homo sapiens, Skin fibroblast, genistein 5 μM, read-out: % of Inhibition of Fibroblast PGE2 Levels): 52%

Compound: conjugated linoleic acid [CLA]
- % of inhibition of fibroblast ICAM production ([1]; CLA 1 μM): 27.7%
- % of Inhibition of Fibroblast PGE2 Levels ([2]; CLA 0.1 μM): 16.9%
- % of Inhibition of Fibroblast PGE2 Levels ([2]; CLA 5 μM): 14.5%
- Decorin ([3]; 0.1 μM CLA): 68.29%
